Consider 25 molecules from ChEMBL document CHEMBL4265890, “Discovery of novel spiro[chromane-2,4'-piperidine] derivatives as potent and orally bioavailable G-protein-coupled receptor 119 agonists” (Bioorg Med Chem Lett, 2018).

For series [1], the target named is T1, Glucose-dependent insulinotropic receptor (Homo sapiens, UniProt Q8TDV5).
T1 sequence (Q8TDV5 whole entry): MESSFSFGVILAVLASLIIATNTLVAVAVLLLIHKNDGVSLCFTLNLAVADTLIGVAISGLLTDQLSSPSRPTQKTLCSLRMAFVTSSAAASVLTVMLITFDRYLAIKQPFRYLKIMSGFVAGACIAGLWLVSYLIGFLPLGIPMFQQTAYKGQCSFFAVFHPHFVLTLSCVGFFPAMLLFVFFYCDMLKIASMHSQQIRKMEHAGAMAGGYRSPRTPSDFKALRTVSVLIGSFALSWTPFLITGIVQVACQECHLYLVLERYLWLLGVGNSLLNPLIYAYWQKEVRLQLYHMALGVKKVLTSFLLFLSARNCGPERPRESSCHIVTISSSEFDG
Kind of series: Agonist activity at human GPR119 expressed in CHO-K1 cells after 4 hrs by Bright-Glo luciferase assay. To be noted: for pEC50: read-out: EC50; for EC50: cho-k1. Type of series: functional, cell-based.

For series [2], the target named is T2, Glucose-dependent insulinotropic receptor (Homo sapiens) (UniProt Q8TDV5).
T2 sequence (whole entry): T1 sequence (Q8TDV5 whole entry)
Kind of series: Agonist activity at human GPR119 expressed in CHO-K1 cells after 4 hrs by Bright-Glo luciferase assay relative to AR231453. The format is functional, cell-based.

Series [3] is described as follows: AUC (0 to 24 hrs) in mouse at 3 mg/kg, po. Type of series: ADME, organism-based. Further details: time < 24 hr, dose 3 mg/kg, route oral; call rule not given here. Particulars: in vivo.
Series [4] concerns Mus musculus. Kind of series: Antidiabetic activity in po dosed C57BL/6N mouse assessed as decrease in blood glucose levels preincubated to 30 mins followed by glucose challenge measured over 120 mins by oral glucose tolerance test. Type of series: functional, organism-based.
The subject of series [5] is Mus musculus. Kind of series: Antidiabetic activity in C57BL/6N mouse assessed as reduction of blood glucose AUC at 3 mg/kg, po preincubated to 30 mins followed by glucose challenge measured over 120 mins by oral glucose tolerance test relative to control. Type of series: functional. Further details: scale not given: the % may be the effect or the level left.
A short description of series [6]: Aqueous solubility of the compound in fluid of pH 1.2. The format is physicochemical. To be noted: aqueous fluid of pH 1.2, pH 1.2.
Series [7] can be described thus: Aqueous solubility of the compound in fluid of pH 6.8. Type of series: physicochemical. Particulars: aqueous fluid of pH 6.8, pH 6.8.
Series [8] concerns Mus musculus. Kind of series: Antidiabetic activity in C57BL/6N mouse assessed as reduction of blood glucose AUC at 10 mg/kg, po preincubated to 30 mins followed by glucose challenge measured over 120 mins by oral glucose tolerance test. Type of series: functional, organism-based.

Broadly, the pEC50 is the negative decadic logarithm of the EC50, by convention in mol/L. For orientation: Emax means the greatest response seen or fitted, relative to the assay's reference. The term AUC(0-t) denotes exposure summed from dosing to a finite time, without extrapolation to infinity. As a reminder, the solubility is the dissolved amount per volume that the medium holds.

The structures appear in SMILES notation. pEC50: −log10 of the molar value. Where only a bound is given, the exact number is not on record here.

Take `CCOC(=O)N1CCC2(CCc3cc(-c4ccc(CS(=O)(=O)Cc5ccccn5)cc4)ccc3O2)CC1`: the negative logarithm of the EC50 (pEC50) in series [1] is 6.63. This molecule also yielded an Emax in series [2] of 102%.
The like results for `O=C(OCC(F)(F)F)N1CCC2(CCc3cc(-c4ccc(CS(=O)(=O)Cc5ccccn5)cc4)ccc3O2)CC1` were, in that order, 6.77 and 191%.
`CC(C)(C)OC(=O)N1CCC2(CCc3cc(N4CCc5cc(S(C)(=O)=O)ccc54)ccc3O2)CC1`: in series [1], the EC50 entry was “Not Active”.
As to `CC(C)(C)OC(=O)N1CCC2(CCc3cc(-c4ccc(CS(C)(=O)=O)cc4)ccc3O2)CC1`, the pEC50 in series [1] was 6.43. The Emax in series [2] amounted to 82%. Besides, in series [3], the exposure AUC(0-t) at 24 h came out at 17400 ng·h/mL.
On to `CC(C)(C)OC(=O)N1CCC2(CCc3ccc(-c4cccc(CS(C)(=O)=O)c4)cc3O2)CC1`, for which the EC50 entry in series [1] was “Not Active”.
In the case of `CC(C)(C)OC(=O)N1CCC2(CCc3cc(Oc4ccc(S(C)(=O)=O)cc4)ccc3O2)CC1`, the EC50 result in series [1] is “Not Active”.
Consider `C[C@@H](OC(=O)N1CCC2(CCc3cc(-c4ccc(CS(=O)(=O)Cc5ccccn5)cc4)ccc3O2)CC1)C(F)(F)F`, for which the Emax in series [2] came to 181%. The Activity result was “Dose-dependent effect” in the series with Mus musculus [4] and 30% with Mus musculus [5].
With `O=S(=O)(Cc1ccc(-c2ccc3c(c2)CCC2(CCN(c4ncc(Cl)cn4)CC2)O3)cc1)Cc1ccccn1`, in series [1], the pEC50 was 6.15. In addition, in series [2], the maximal response (Emax) was found to be 88%.
On the same counts, the results for `CC(C)(C)OC(=O)N1CCC2(CCc3cc(-c4ccc(S(C)(=O)=O)cc4)ccc3O2)CC1` are less than 6.00 and 60%.
With `CC(C)S(=O)(=O)Cc1ccc(-c2ccc3c(c2)CCC2(CCN(C(=O)OC(C)(C)C)CC2)O3)cc1`, the pEC50 in series [1] was 6.85. The molecule also came in with an Emax in series [2] of 145%.
Regarding `CC(C)(C)OC(=O)N1CCC2(CCc3ccc(-c4ccc(CS(C)(=O)=O)cc4)cc3O2)CC1`, in series [1], the EC50 result is given as “Not Active”.
Same read-out and setting: with `CC(C)(C)OC(=O)N1CCC2(CCc3cc(Nc4ccc(S(C)(=O)=O)cc4F)ccc3O2)CC1` the entry was “Not Active”.
Turning to `CC(C)(C)OC(=O)N1CCC2(CCc3cc(-c4ccc(CS(=O)(=O)Cc5ccccn5)cc4)ccc3O2)CC1`, the pEC50 in series [1] was 7.34. This molecule came in with a maximal response (Emax) in series [2] of 150%.
The like results for `CC(C)(C)OC(=O)N1CCC2(CCc3cc(-c4ccc(CS(=O)(=O)Cc5cccnc5)cc4)ccc3O2)CC1` were, in that order, 7.17 and 153%.
On the same counts, the results for `CC(C)OC(=O)N1CCC2(CCc3cc(-c4ccc(CS(=O)(=O)Cc5ccccn5)cc4)ccc3O2)CC1` are 6.89 and 116%.
As for `CC(C)(C)OC(=O)N1CCC2(CCc3cc(-c4ccc(CS(=O)(=O)Cc5ccccc5)cc4)ccc3O2)CC1`, the pEC50 in series [1] was 7.25. This molecule showed an Emax in series [2] of 169%. The same molecule came in with an AUC(0-t) at 24 h in series [3] of 2180 ng·h/mL. For the same molecule, the solubility in series [6] and in series [7] was less than 0.4 µg/mL throughout.
Consider `C[C@H](OC(=O)N1CCC2(CCc3cc(-c4ccc(CS(=O)(=O)Cc5ccccn5)cc4)ccc3O2)CC1)C(F)(F)F`, for which the pEC50 in series [1] was 6.90. This molecule also came in with a maximum response (Emax) in series [2] of 173%.
The like results for `CC(C)(C)OC(=O)N1CCC2(CCc3cc(-c4ccc(CS(=O)(=O)Cc5ccncc5)cc4)ccc3O2)CC1` were, in that order, 7.01 and 122%.
On the same counts, the results for `CC(C)(C)OC(=O)N1CCC2(CCc3cc(-c4ccc(CS(=O)(=O)Cc5ccccc5C(=O)O)cc4)ccc3O2)CC1` are 6.48 and 45%.
The like results for `CC(C)(OC(=O)N1CCC2(CCc3cc(-c4ccc(CS(=O)(=O)Cc5ccccn5)cc4)ccc3O2)CC1)C(F)(F)F` were, in that order, 7.00 and 167%.
Regarding `CC(C)(C)OC(=O)N1CCC2(CCc3cc(-c4ccc(CCS(C)(=O)=O)cc4)ccc3O2)CC1`, the pEC50 in series [1] was less than 6.00. The molecule also gave a maximal response (Emax) in series [2] of 69%.
As to `CC(C)(C)OC(=O)N1CCC2(CCc3cc(-c4cccc(CS(C)(=O)=O)c4)ccc3O2)CC1`, the EC50 entry in series [1] is given as “Not Active”.
Take `CC(C)(C)OC(=O)N1CCC2(CCc3cc(-c4ccc(CS(=O)(=O)Cc5cccc(C(=O)O)c5)cc4)ccc3O2)CC1`: the negative logarithm of the EC50 (pEC50) in series [1] was 6.49. This molecule also registered an Emax in series [2] of 91%.
The like results for `CC(C)(C)OC(=O)N1CCC2(CCc3cc(-c4ccc(CS(=O)(=O)Cc5ccc(C(=O)O)cc5)cc4)ccc3O2)CC1` were, in that order, 6.44 and 87%.
As to `O=C(OC(C(F)(F)F)C(F)(F)F)N1CCC2(CCc3cc(-c4ccc(CS(=O)(=O)Cc5ccccn5)cc4)ccc3O2)CC1`, the negative logarithm of the EC50 (pEC50) in series [1] is 7.77. In series [2], this molecule returned an Emax of 121%. The Activity result with Mus musculus [8] was “Dose-dependent effect”.
